Assay [1] deals with A53T α-synuclein transfected human iPSC-derived neurons. In words: Neuron survival, A53T α-synuclein transfected human iPSC-derived neurons. It counts as cell-based. The note with it: all tested concentrations (3 μM to 0.3 μM); relative to DMSO controls. As for the experimental part: FIG. 16 is a graph illustrating that non-selective SCD reference inhibitor, CAY10566, reduces risk of death in A53T α-synuclein transfected human iPSC-derived neurons. Human iPSC-derived neurons were co-transfected with a fluorescence reporter plasmid encoding RFP (morphology tracer) and control plasmid (empty) or plasmid containing α-synuclein-A53T mutation (syn-A53T). Neuron groups as indicated were treated with either DMSO or CAY10566 at the indicated doses. The lifetimes of single neurons were tracked over time based on either loss of RFP fluorescence signal or morphological indicators of neuron death such as loss of neurites or cell blebbing. […] Cox proportional hazard analysis was used to estimate relative risk of death, or hazard ratio (HR) and the P value was determined by the logrank test. […]
FIG. 17 is a graph illustrating that an SCD5-selective inhibitor reduces risk of death in A53T α-synuclein transfected human iPSC-derived neurons. Human iPSC-derived neurons were co-transfected with a fluorescence reporter plasmid encoding RFP (morphology tracer) and control plasmid (empty) or plasmid containing α-synuclein-A53T mutation (syn-A53T). […] The lifetimes of single neurons were tracked over time based on either loss of RFP fluorescence signal or morphological indicators of neuron death such as loss of neurites or cell blebbing. […]

Another assay relates to SCD. In words: Fatty acid saturation in guinea pig brain after oral administration of SCD inhibitors (GC-FID of FAME). Type of assay: in vivo. The note with it: 25 mg/kg orally twice daily for 5 days; brain 4 h after last dose; vs vehicle. The method, then:
FIG. 18A-18F are a series of graphs showing an evaluation of fatty acid saturation in guinea pig brain after oral administration of SCD inhibitors. Guinea pigs were dosed orally with SCD inhibitors twice daily (every 12 hours) for 5 days. Guinea pigs were dosed with vehicle, SCD5 Selective Inhibitor 1 (“SCD5-SI-1”), SCD5 Selective Inhibitor 2 (“SCD5-SI-2”), CAY10566 (“CAY”) or SCD1/SCD5 Inhibitor 1 (“SCD1/5-1”), all compounds at 25 mg/kg with a volume-matched vehicle control. Four hours after the last dose on day 5, guinea pigs were sacrificed, and brains were removed after whole-body saline perfusion. […] Samples were evaluated on a gas chromatograph with a flame ionization detector (GC-FID) to quantify a comprehensive panel of fatty acid species. Brain samples were evaluated for levels of 16 (FIG. 18A) and 18 (FIG. 18B) carbon-containing fatty acids (C16, C18 respectively), and the desaturation index (DI) was calculated by taking the ratio of desaturated to saturated fatty acid for each species. […] Brain samples were evaluated for the relative levels of the positional isomers of C16, including C16:1 n7 palmitoleic acid (FIG. 18C) or C16:1 n9 monounsaturated fatty acids (FIG. 18D). […] Data was analyzed by one-way ANOVA with Tukey's post-hoc test to account for multiple comparisons. **p<0.01, ***p<0.005, ****p<0.0001. […]

Each structure is given as a SMILES string.

The source of these data is patent US10973810B2, “Methods for the treatment of neurological disorders” (Yumanity Therapeutics, Inc., priority 2017, dated 2021).

In the case of `Cc1nnc(-c2ccc(N3CCC(Oc4cc(F)ccc4Cl)CC3)nn2)o1` [CAY10566], the “risk of neuron death” value in assay [1] is given as “significantly reduced”. Also, the “C16 desaturation index (DI) in brain” value in the assay on SCD is “decreased”.
